Assays:
Human glioma cells GL07 = assay: Antitumor effect on human glioma cells (GL07) transplanted into nude mice; type: in vivo; details: Mus musculus, Glioma cell, 216 h, GL07, oral, 20 mg/kg once a day for 9 days, read-out: TGIR, % (tumor growth inhibition rate)
How it was run: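 GL07 xenografts in nude mice, grouped (n=4) at ~100 mm^3 tumor volume. Test compound 20 mg/kg p.o. or i.p. once daily for 9 days; vehicle controls. TGIR = (1−Tx/Cx)×100 from tumor volumes normalized to day-of-start volume = 1.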

[1] = system: activation of MAPK within vascular endothelial cells induced by VEGF stimulation; assay: Inhibitory activity against activation of MAPK within vascular endothelial cells induced by VEGF stimulation; type: cell-based; details: Endothelial cell; human funicular venous vascular endothelial cells, VEGF 50 ng/ml, phosphorylated MAPK by immunoblotting
Description: Measurement of Inhibitory Activity Against Activation of MAPK Within Vascular Endothelial Cells Induced by VEGF Stimulation
Human funicular venous vascular endothelial cells (purchased from Chronetics) were cultured in an EGM-2 medium (purchased from Chronetics) within an incubator containing 5% carbon dioxide until 50 to 70% confluent, and the culture was inoculated into wells, containing the same medium, in a 96-well flat-bottom plate in an amount of 1.5×10^5 per well. After cultivation at 37° C. overnight, the medium was replaced by an EBM-2 medium containing 0.5% fetal calf serum (purchased from Chronetics), followed by cultivation for 24 hr. A solution of the test compound in dimethyl sulfoxide was added to each well, and the cultivation was continued at 37° C. for additional one hr. A human recombinant vascular endothelial growth factor (hereinafter abbreviated to “VEGF”) was added to a final concentration of 50 ng/ml, and the stimulation of cells was carried out at 37° C. for 8 min. The medium was removed, the cells were washed with phosphate buffered saline (pH 7.4), and 10 μl of a solubilization buffer (Tris buffered saline (pH 7.4) containing 1% Triton X100, 2 mM sodium orthovanadylate, and 1 mM disodium ethylenediaminetetraacetate) was then added thereto. The mixture was shaken at 4° C. for one hr to solubilize the cells. An equal amount of Tris buffered saline containing 1% sodium laurylsulfate was added to and thoroughly mixed with the solution. This solution (2 μl) was adsorbed on a PVDF filter by dot blotting, and this filter was subjected to immunoblotting with anti-tyrosine phosphorylated MAPK antibody (purchased from Daiichi Pure Chemicals).
The level of phosphorylated MAPK was quantitatively determined with a densitometer, and the percentage phosphorylated MAPK in the presence of the test compound was determined by presuming the level of phosphorylated MAPK with the addition of VEGF in the absence of the test compound to be 100% and the level of phosphorylated MAPK in the absence of the test compound and VEGF to be 0%. The test compound concentration (IC50) necessary for inhibiting 50% of the activation of MAPK was calculated based on the percentage of phosphorylated MAPK.

human KDR = target: T1, human KDR (Homo sapiens, UniProt P35968); assay: Inhibitory activity against KDR phosphorylation by ELISA; type: cell-based; details: NIH 3T3 cells transfected with human KDR, VEGF 100 ng/ml
T1 construct: expressed in transfected cells; host or cells: NIH 3T3 cells (Sawano A et al., Cell Growth & Differentiation 7, 213-221 (1996))
T1 sequence (P35968 20-1356): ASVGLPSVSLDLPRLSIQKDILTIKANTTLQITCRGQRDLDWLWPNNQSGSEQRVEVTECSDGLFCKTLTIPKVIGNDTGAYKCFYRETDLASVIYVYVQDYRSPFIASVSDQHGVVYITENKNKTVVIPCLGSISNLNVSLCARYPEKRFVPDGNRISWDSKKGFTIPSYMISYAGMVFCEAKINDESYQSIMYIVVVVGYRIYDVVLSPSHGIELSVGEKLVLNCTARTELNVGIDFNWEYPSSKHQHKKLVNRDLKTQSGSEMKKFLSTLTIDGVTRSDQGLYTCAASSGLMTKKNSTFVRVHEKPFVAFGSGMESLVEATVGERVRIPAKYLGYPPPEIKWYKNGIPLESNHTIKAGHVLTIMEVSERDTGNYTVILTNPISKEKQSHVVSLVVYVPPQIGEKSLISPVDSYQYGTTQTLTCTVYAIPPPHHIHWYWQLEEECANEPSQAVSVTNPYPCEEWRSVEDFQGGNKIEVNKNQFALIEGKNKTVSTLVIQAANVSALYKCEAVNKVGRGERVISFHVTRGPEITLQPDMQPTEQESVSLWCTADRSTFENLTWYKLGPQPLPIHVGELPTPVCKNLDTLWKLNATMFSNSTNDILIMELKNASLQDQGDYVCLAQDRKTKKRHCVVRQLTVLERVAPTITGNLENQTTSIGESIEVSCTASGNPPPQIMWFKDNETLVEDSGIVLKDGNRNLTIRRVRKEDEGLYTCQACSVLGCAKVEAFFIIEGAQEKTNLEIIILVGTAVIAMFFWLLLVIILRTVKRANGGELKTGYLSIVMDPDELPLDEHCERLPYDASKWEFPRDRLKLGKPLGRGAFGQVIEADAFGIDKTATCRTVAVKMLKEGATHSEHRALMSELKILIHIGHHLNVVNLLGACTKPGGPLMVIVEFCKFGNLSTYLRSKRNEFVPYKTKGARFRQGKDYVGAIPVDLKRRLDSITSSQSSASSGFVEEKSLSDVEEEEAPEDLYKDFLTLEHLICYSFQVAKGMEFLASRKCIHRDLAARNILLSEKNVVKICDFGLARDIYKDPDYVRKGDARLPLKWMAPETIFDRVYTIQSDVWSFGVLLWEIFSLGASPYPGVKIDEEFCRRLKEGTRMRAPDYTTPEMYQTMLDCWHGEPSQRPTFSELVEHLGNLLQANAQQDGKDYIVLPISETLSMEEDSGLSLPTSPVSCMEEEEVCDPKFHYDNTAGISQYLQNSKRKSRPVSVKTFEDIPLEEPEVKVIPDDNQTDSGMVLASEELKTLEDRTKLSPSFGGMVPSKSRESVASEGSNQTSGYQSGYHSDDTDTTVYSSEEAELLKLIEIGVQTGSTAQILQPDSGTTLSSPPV

Row | Compound | inhibition in vivo at 20 mg/kg (Human glioma cells GL07) [%] | IC50 [1] [nM] | IC50 (human KDR) [nM]
1 | CCCNC(=O)Nc1ccc(Oc2ncnc3cc(OC)c(OC)cc23)cc1 [Example 64, N-{4-[(6,7-Dimethoxy-4-quinazolinyl)oxy]-phenyl}-N′-propylurea] | 37 | 42 | 150
2 | CCCCCNC(=O)Nc1ccc(Oc2ncnc3cc(OC)c(OC)cc23)cc1 [Example 66, N-{4-[(6,7-Dimethoxy-4-quinazolinyl)oxy]-phenyl}-N′-pentylurea] | 26 | 21 | 15
3 | CCC(C)NC(=O)Nc1ccc(Oc2ncnc3cc(OC)c(OC)cc23)cc1 (stereo not drawn) [Example 67, N-(sec-Butyl)-N′-{4-[(6,7-dimethoxy-4-quinazolinyl)oxy]phenyl}urea] | 30 | 345 | 63
4 | C=CCNC(=O)Nc1ccc(Oc2ncnc3cc(OC)c(OC)cc23)cc1 [Example 68, N-Allyl-N′-{4-[(6,7-Dimethoxy-4-quinazolinyl)oxy]phenyl}urea] | 57 | 45 | 24
5 | C#CCNC(=O)Nc1ccc(Oc2ncnc3cc(OC)c(OC)cc23)cc1 [Example 69, N-{4-[(6,7-Dimethoxy-4-quinazolinyl)-oxy]phenyl}-N′-(2-propynyl)urea] | 26 | 67 | 64
6 | COc1cc2ncnc(Oc3ccc(NC(=O)NCc4ccccn4)cc3)c2cc1OC [Example 71, N-{4-[(6,7-Dimethoxy-4-quinazolinyl)oxy]-phenyl}-N′-(2-pyridylmethyl)urea] | 67 | 750 | 350
7 | COc1cc2ncnc(Oc3ccc(NC(=O)Nc4ccc(F)cc4)cc3)c2cc1OC [Example 73, N-{4-[(6,7-Dimethoxy-4-quinazolinyl)oxy]-phenyl}-N′-(4-fluorophenyl)urea] | 34 | < 2 | 1
8 | COc1cc2ncnc(Oc3ccc(NC(=O)Nc4ccccc4C)cc3)c2cc1OC [Example 74, N-{4-[(6,7-Dimethoxy-4-quinazolinyl)oxy]-phenyl}-N′-(2-methylphenyl)urea] | 28 | 6 | 11
9 | CCCCNC(=O)Nc1ccc(Oc2ncnc3cc(OC)c(OC)cc23)cc1Cl [Example 77, N-Butyl-N′-{2-chloro-4-[(6,7-dimethoxy-4-quinazolinyl)oxy]phenyl}urea] | 26 | 71 | 6
10 | CCCCCNC(=O)Nc1ccc(Oc2ncnc3cc(OC)c(OC)cc23)cc1Cl [Example 78, N-{2-Chloro-4-[(6,7-dimethoxy-4-quinazolinyl)oxy]phenyl}-N′-pentylurea] | 21 | 4.1 | 3.4
11 | CCC(C)NC(=O)Nc1ccc(Oc2ncnc3cc(OC)c(OC)cc23)cc1Cl (stereo not drawn) [Example 79, N-(sec-Butyl)-N′-{2-chloro-4-[(6,7-dimethoxy-4-quinazolinyl)oxy]phenyl}urea] | 28 | 30 | 18
12 | C=CCNC(=O)Nc1ccc(Oc2ncnc3cc(OC)c(OC)cc23)cc1Cl [Example 80, N-Allyl-N′-{2-chloro-4-[(6,7-dimethoxy-4-quinazolinyl)oxy]phenyl}urea] | 52 | 13 | 2.7
13 | COc1cc2ncnc(Oc3ccc(NC(=O)NCc4ccc(F)cc4F)c(Cl)c3)c2cc1OC [Example 82, N-{2-Chloro-4-[(6,7-dimethoxy-4-quinazolinyl)oxy]phenyl}-N′-(2,4-difluorobenzyl)urea] | 27 | 3.8 | 8.4
14 | COc1cc2ncnc(Oc3ccc(NC(=O)N(C)c4ccccn4)c(Cl)c3)c2cc1OC [Example 83] | 31 | > 1000 | 840
15 | COc1cc2ncnc(Oc3ccc(NC(=O)Nc4ccc(F)cc4)c(Cl)c3)c2cc1OC [Example 85, N-{2-Chloro-4-[(6,7-dimethoxy-4-quinazolinyl)oxy]phenyl}-N′-(4-fluorophenyl)urea] | 26 | 0.7 | 0.5
16 | COc1cc2ncnc(Oc3ccc(NC(=O)Nc4ccc(Cl)cn4)c(Cl)c3)c2cc1OC [Example 87, N-{2-Chloro-4-[(6,7-dimethoxy-4-quinazolinyl)oxy]phenyl}-N′-(5-chloro-2-pyridyl)urea] | – | 58 | 110
17 | CCCCNC(=O)Nc1ccc(Oc2ncnc3cc(OC)c(OC)cc23)cc1F [Example 89, N-Butyl-N′-{4-[(6,7-dimethoxy-4-quinazolinyl)oxy]-2-fluorophenyl}urea] | 40 | 45 | 24
18 | CCC(C)NC(=O)Nc1ccc(Oc2ncnc3cc(OC)c(OC)cc23)cc1F (stereo not drawn) [Example 90, N-(sec-Butyl)-N′-{4-[(6,7-dimethoxy-4-quinazolinyl)oxy]-2-fluorophenyl}urea] | – | 42 | 57
19 | C#CCNC(=O)Nc1ccc(Oc2ncnc3cc(OC)c(OC)cc23)cc1F [Example 92, N-{4-[(6,7-Dimethoxy-4-quinazolinyl)oxy]-2-fluorophenyl}-N′-(2-propynyl)urea] | – | 46 | 63
20 | COc1cc2ncnc(Oc3ccc(NC(=O)NCc4ccc(F)cc4F)c(F)c3)c2cc1OC [Example 93, N-(2,4-Difluorobenzyl)-N′-{4-[(6,7-dimethoxy-4-quinazolinyl)oxy]-2-fluorophenyl}urea] | 29 | 14 | 37
21 | COc1cc2ncnc(Oc3ccc(NC(=O)Nc4ccc(F)cc4F)c(F)c3)c2cc1OC [Example 94, N-(2,4-Difluorophenyl)-N′-{4-[(6,7-dimethoxy-4-quinazolinyl)oxy]-2-fluorophenyl}urea] | 29 | 1.8 | 2.3
22 | COc1cc2ncnc(Oc3ccc(NC(=O)Nc4ccccc4C)c(F)c3)c2cc1OC [Example 95, N-{4-[(6,7-Dimethoxy-4-quinazolinyl)oxy]-2-fluorophenyl}-N′-(2-methylphenyl)urea] | – | 2.7 | 3.8
23 | COc1ccccc1NC(=O)Nc1ccc(Oc2ncnc3cc(OC)c(OC)cc23)cc1F [Example 96, N-{4-[(6,7-Dimethoxy-4-quinazolinyl)oxy]-2-fluorophenyl}-N′-(2-methoxyphenyl)urea] | – | < 1 | 0.4
24 | CCCNC(=O)Nc1ccc(Oc2ncnc3cc(OC)c(OC)cc23)c(C)c1 [Example 97, N-{4-[(6,7-Dimethoxy-4-quinazolinyl)oxy]-3′-methylphenyl}-N′-propylurea] | 48 | 518 | 490
25 | CCCCNC(=O)Nc1ccc(Oc2ncnc3cc(OC)c(OC)cc23)c(C)c1 [Example 98, N-Butyl-N′-{4-[(6,7-dimethoxy-4-quinazolinyl)oxy]-3-methylphenyl}urea] | 38 | 450 | 330
26 | COc1ccccc1NC(=O)Nc1ccc(Oc2ncnc3cc(OC)c(OC)cc23)cc1C [Example 106, N-{4-[(6,7-Dimethoxy-4-quinazolinyl)oxy]-2-methylphenyl}-N′-(2-methoxyphenyl)urea] | – | < 1 | 1.5

From patent US7169789B2 (Kirin Beer Kabushiki Kaisha, priority 1999, dated 2007)
